Laboratory results: US8470344B2, “Aqueous dispersions and solutions of difficult to dissolve materials and methods of their preparation” (Teva Pharmaceutical Industries Ltd., priority 2005, dated 2013)

Columns and labels:
[1] = Dissolving or dispersing the compound-covered substrate matrix (dry powder) in water; type: physicochemical
Method: 1 mL of the Latanoprost solution (6.4 mg/mL) in ethanol was added to a mixture of NaH2PO4*H2O (0.553 g) and Na2HPO4 (0.564 g). The resulting mixture was dried under reduced pressure at room temperature to yield dry powder particles having latanoprost on the surface thereof. The dry powder was dissolved in water (120 mL) to form a solution. Benzalkonium chloride was added to the solution.
Latanoprost (17.97 mg) was dissolved in acetonitrile (5 mL). 1.5 mL of this solution were added to mixture of NaH2PO4 (0.464 g) and Na2HPO4 (0.469 g). The resulting mixture was dried under reduced pressure to obtain a dry powder. 50 mL of water were added to dry powder and stirred during 5 minutes. A fine suspension of Latanoprost with concentration about 0.01% (w/v) was obtained. 50 mL of water, containing Benzalkonium chloride and sodium chloride, were added to this suspension and stirred. The obtained clear solution of Latanoprost had concentration 0.005% (w/v).
Dexamethasone (104.05 mg) was dissolved in acetonitrile (5 mL). 1 mL of this solution was added to 545 mg of NaH2PO4*H2O and the mixture was dried in a reduced pressure for 15 hours. 20 mL of water were added and mixture was stirred. A fine suspension of dexamethasone (concentration about 0.1% w/v) was obtained.

[2] = Comparative example: direct dissolution of latanoprost in water containing NaH2PO4 with stirring; type: physicochemical
Method: Latanoprost (5.621 mg) was dissolved in water (100 mL), containing NaH2PO4 (0.463 g). The mixture was stirred for 120 minutes.
The mixture from Example 3 was heated at 40° C. with stirring for 120 minutes. A solution of Latanoprost with concentration 0.00407% (w/v, or 81.4% of target concentration 0.005%) was obtained.

Structure (SMILES): CC(C)OC(=O)CCC/C=C\C[C@@H]1[C@@H](CC[C@@H](O)CCc2ccccc2)[C@H](O)C[C@@H]1O [Latanoprost, Isopropyl (Z)-7-{(1R,2R,3R,5S)-3,5-dihydroxy-2-[3(R)-(3-hydroxyl-5-phenyl)pentyl]cyclopentyl}-5-heptenoate]
- content of Latanoprost in resultant solution ([1]; Example 1: ethanol solution dried on NaH2PO4*H2O/Na2HPO4, powder dissolved in water (120 mL), benzalkonium chloride added, room temperature): 0.005 % (w/v)
- appearance and stability of resultant solution ([1]; Example 1: powder dissolved in water (120 mL), benzalkonium chloride added): transparent and stable
- concentration of fine suspension of Latanoprost ([1]; Example 2: acetonitrile solution dried on NaH2PO4/Na2HPO4, 50 mL water, stirred 5 minutes): about 0.01 % (w/v)
- concentration of obtained clear solution of Latanoprost ([1]; Example 2: after further 50 mL water containing benzalkonium chloride and sodium chloride): 0.005 % (w/v)
- Latanoprost concentration of aqueous solution ([2]; Example 3 (comparative): 5.621 mg in water (100 mL) with NaH2PO4, stirred 120 minutes): 0.00015 % (w/v)
- percent of target concentration of 0.005% ([2]; Example 3 (comparative): stirred 120 minutes, no heating): 30%
- percent of target concentration 0.005% ([2]; Example 4 (comparative): heated at 40° C. with stirring for 120 minutes): 81.4%
- concentration of solution of Latanoprost ([2]; Example 4 (comparative): mixture from Example 3 heated at 40° C. with stirring for 120 minutes): 0.00407 % (w/v)
